GI50 and TGI data for 1 compound are collected here from PubChem BioAssay (NCI).

Structures are written as SMILES.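 In this assay, cells in 96-well plates receive the compound at five concentrations for 48 hours. Endpoints are linearly interpolated between the surrounding concentrations. At the GI50, growth is halved. At the TGI there is no net growth.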

Some test systems named below: U251 CNS; ACHN renal; HCC-2998 colon; SNB-19 CNS; UACC-257 melanoma; HL-60(TB) leukemia; MDA-MB-435; EKVX NSCLC; HT29 colon; IGROV1 ovarian.
Test in all cases: DTP human tumour cell line panel, 48 h

What is called GI50 is the concentration giving 50% growth inhibition. For orientation: TGI means the concentration giving total growth inhibition. A lower TGI goes with more potent growth arrest. As to `N=C(N)c1ccc(N2CCCN(c3ccc(C(=N)N)cc3)CC2)cc1`, the GI50 is 47.7 µM in the assay on U251 CNS; more than 100 µM with ACHN renal; more than 100 µM in the assay with HCC-2998 colon; 48.7 µM with SNB-19 CNS; more than 100 µM in the assay with UACC-257 melanoma; more than 100 µM with HL-60(TB) leukemia. The GI50 in the assay with MDA-MB-435 is more than 100 µM; with EKVX NSCLC, 42.4 µM; with HT29 colon, 74.5 µM; with IGROV1 ovarian, more than 100 µM. Further, the TGI in the assay on U251 CNS, in the assay with ACHN renal, in the assay with HCC-2998 colon, with SNB-19 CNS, with UACC-257 melanoma and in the assay with HL-60(TB) leukemia was more than 100 µM throughout. The TGI in the assay on MDA-MB-435, with EKVX NSCLC, with HT29 colon and in the assay with IGROV1 ovarian was more than 100 µM each time.
